{"source": "patent US11872228B2", "about": "“Pharmaceutical composition containing thiamine derivative for prevention or treatment of sepsis” (KYUNGPOOK NATIONAL UNIVERSITY INDUSTRY-ACADEMIC COOPERATION …, priority 2021, dated 2024)", "key": {"[1]": {"system": "LPS-induced sepsis mouse model", "procedure": "(The signs of the moribund state: impaired mobility, inability to maintain upright position, prolonged lack of activity and labored breathing)\nSix- to eight-week old C57BL/6J male mice were grouped, each group containing seven mice. The whole experimental schedule is shown FIG. 1. The mice were fed fursultiamine 24 hours and 30 minutes before intraperitoneal injection of 40 mg/kg LPS, and then again administered fursultiamine 6 hours after the intraperitoneal injection, and then the survival rates of the mice were monitored and the results are shown in FIG. 2 and Table 1."}, "[2]": {"system": "IL-1β"}, "[3]": {"system": "TNFα", "experiment": "Inhibition of TNFα expression in LPS-activated dendritic cells (ELISA of supernatants)", "format": "cell-based, C57BL/6J male mice", "settings": "for TNFα expression level relative to LPS alone: LPS-activated dendritic cells"}, "[4]": {"system": "TNFα", "experiment": "Inhibition of TNFα expression in LPS-activated dendritic cells (ELISA of supernatants)", "format": "cell-based, C57BL/6J male mice", "settings": "for TNFα (pg/mL): dendritic cells, 100 ng/mL LPS 18 h", "procedure": "(§1) The dendritic cells at 1×10^6 cells/mL were treated with benfotiamine and fursultiamine at different concentrations of 0, 1, 10, and 100 and allithiamine at different concentrations of 0, 1, and 10 μM.\nThereafter, the dendritic cells were activated with 100 ng/mL LPS for 18 hours."}, "[5]": {"system": "CD86", "experiment": "CD86 expression in CD11c+ dendritic cells by flow cytometry", "format": "cell-based, C57BL/6J male mice", "settings": "50 μM, 100 ng/mL LPS"}, "[6]": {"system": "CD86", "experiment": "CD86 expression in CD11c+ dendritic cells by flow cytometry", "format": "cell-based, C57BL/6J male mice", "procedure": "as §1\n(§2) The dendritic cells were measured for CD40 and CD86 in CD11c+ cells by flow cytometry, and the results are shown in FIGS. 6A and 6B and Tables 5 and 6."}, "[7]": {"system": "CD40", "experiment": "CD40 expression in CD11c+ dendritic cells by flow cytometry", "format": "cell-based, C57BL/6J male mice", "procedure": "as §1, §2"}, "[8]": {"system": "IL-1β", "experiment": "Inhibition of IL-1β expression in LPS-primed, ATP-treated dendritic cells", "format": "cell-based, C57BL/6J male mice", "settings": "for IL-1β: LPS priming + 5 mM ATP", "procedure": "Bone marrow was extracted from the legs of six- to eight-week old C57BL/6J male mice, and subjected to red blood cell (RBC) lysis, followed by differentiation into dendritic cells in RPMI 1640 medium (10% fetal bovine serum (FBS) and 1% penicillin-streptomycin) along with 20 ng/ml granulocyte-macrophage colony-stimulating factor (GM-CSF) for six days. The dendritic cells at 1×10^6 cells/mL were treated with benfotiamine and fursultiamine at different concentrations of 0, 1, 10, and 100 and allithiamine at different concentrations of 0, 1, and 10 μM.\nThe dendritic cells were subjected to pro-IL1b priming by the treatment with 500 ng/mL LPS for 3 hours, and then treated with benfotiamine at 0, 10, 50, or 100 and fursultiamine at 0, 10, 50, or 100 μM, for 15 minutes. Then, pro-IL1b was converted into IL-1β through pro-IL1b cleavage, followed by 5 mM ATP treatment for inducing inflammasome formation."}, "[9]": {"settings": "100 μM, dendritic cells not stimulated by LPS"}, "[10]": {"settings": "1 μM, dendritic cells, 100 ng/mL LPS"}, "[11]": {"settings": "10 μM, dendritic cells, 100 ng/mL LPS"}, "[12]": {"settings": "100 μM, dendritic cells, 100 ng/mL LPS"}}, "note": "Read-outs that look alike come from different tables or passages of the source.", "data": [{"smiles": "CC(=C(CCO)SSCC1CCCO1)N(C=O)Cc1cnc(C)nc1N", "note": "(stereo in doubt) [Fursultiamine, fursultiamine]", "values": [{"measurement": "Survival despite LPS injection (in words)", "setting": "[1]; fed 100 mg/kg, 40 mg/kg LPS i.p.", "value": "not dead"}, {"measurement": "Percent survival (%)", "setting": "[1]; fursultiamine 100 mg/kg fed 24 h and 30 min before and 6 h after 40 mg/kg LPS i.p., 0 d", "value": 100, "unit": "%"}, {"measurement": "Percent survival (%)", "setting": "[1]; fursultiamine 100 mg/kg fed, 40 mg/kg LPS i.p., 1 d", "value": 100, "unit": "%"}, {"measurement": "Percent survival (%)", "setting": "[1]; fursultiamine 100 mg/kg fed, 40 mg/kg LPS i.p., 2 d", "value": 100, "unit": "%"}, {"measurement": "Percent survival (%)", "setting": "[1]; fursultiamine 100 mg/kg fed, 40 mg/kg LPS i.p., 3 d", "value": 100, "unit": "%"}, {"measurement": "Percent survival (%)", "setting": "[1]; fursultiamine 100 mg/kg fed, 40 mg/kg LPS i.p., 4 d", "value": 100, "unit": "%"}, {"measurement": "Percent survival (%)", "setting": "[1]; fursultiamine 100 mg/kg fed, 40 mg/kg LPS i.p., 5 d", "value": 100, "unit": "%"}, {"measurement": "Percent survival (%)", "setting": "[1]; fursultiamine 100 mg/kg fed, 40 mg/kg LPS i.p., 6 d", "value": 100, "unit": "%"}, {"measurement": "Percent survival (%)", "setting": "[1]; fursultiamine 100 mg/kg fed, 40 mg/kg LPS i.p., 7 d", "value": 100, "unit": "%"}, {"measurement": "IL-1β", "setting": "[2]; fursultiamine (50 mg/kg as in table; 100 mg/kg in text) along with LPS, 0 h", "value": 4.483, "unit": "pg/mL"}, {"measurement": "IL-1β", "setting": "[2]; fursultiamine along with LPS, 1 h", "value": 6.115, "unit": "pg/mL"}, {"measurement": "IL-1β", "setting": "[2]; fursultiamine along with LPS, 3 h", "value": 96.715, "unit": "pg/mL"}, {"measurement": "IL-1β", "setting": "[2]; fursultiamine along with LPS, 6 h", "value": 186.088, "unit": "pg/mL"}, {"measurement": "IL-1β expression level relative to the control without administration", "setting": "[2]; fursultiamine along with LPS, 6 hours", "value": "about 54.936%"}, {"measurement": "IL-1β", "setting": "[2]; fursultiamine along with LPS, 12 h", "value": 495.824, "unit": "pg/mL"}, {"measurement": "IL-1β expression level relative to the control without administration", "setting": "[2]; fursultiamine along with LPS, 12 hours", "value": "about 60.777%"}, {"measurement": "IL-1β", "setting": "[2]; fursultiamine along with LPS, 18 h", "value": 171.451, "unit": "pg/mL"}, {"measurement": "IL-1β expression level relative to the control without administration", "setting": "[2]; fursultiamine along with LPS, 18 hours", "value": "about 29.673%"}, {"measurement": "TNFα expression level relative to LPS alone", "setting": "[3]; 50 μM", "value": "about 57.22%"}, {"measurement": "TNFα (pg/mL)", "setting": "[3]; 50 μM, dendritic cells, 100 ng/mL LPS 18 h", "value": "3,003.47 pg/mL"}, {"measurement": "TNFα expression level relative to LPS alone", "setting": "[3]; 100 μM", "value": "about 31.02%"}, {"measurement": "TNFα", "setting": "[3]; [9]", "value": 38.37, "unit": "pg/mL"}, {"measurement": "TNFα (pg/mL)", "setting": "[4]; 1 μM", "value": "4,954.64 pg/mL"}, {"measurement": "TNFα expression level relative to LPS alone", "setting": "[4]; 10 μM, LPS-activated dendritic cells", "value": "about 68.60%"}, {"measurement": "TNFα (pg/mL)", "setting": "[4]; 10 μM", "value": "3,600.63 pg/mL"}, {"measurement": "TNFα (pg/mL)", "setting": "[4]; 100 μM", "value": "1,628.26 pg/mL"}, {"measurement": "CD86 (Mean fluorescence intensity; MFI)", "setting": "[5]", "value": "1,275 MFI"}, {"measurement": "CD86 (Mean fluorescence intensity; MFI)", "setting": "[6]; [10]", "value": "2,684 MFI"}, {"measurement": "CD86 (Mean fluorescence intensity; MFI)", "setting": "[6]; [11]", "value": "2,864 MFI"}, {"measurement": "CD86 expression level relative to LPS alone", "setting": "[6]; 100 μM, dendritic cells", "value": "about 13%"}, {"measurement": "CD86 (Mean fluorescence intensity; MFI)", "setting": "[6]; [9]", "value": 382, "unit": "MFI"}, {"measurement": "CD86 (Mean fluorescence intensity; MFI)", "setting": "[6]; [12]", "value": 351, "unit": "MFI"}, {"measurement": "CD40 (Mean fluorescence intensity; MFI)", "setting": "[7]; [10]", "value": "1,992 MFI"}, {"measurement": "CD40 (Mean fluorescence intensity; MFI)", "setting": "[7]; [11]", "value": "2,026 MFI"}, {"measurement": "CD40 expression level relative to LPS alone", "setting": "[7]; 100 μM, dendritic cells", "value": "about 62%"}, {"measurement": "CD40 (Mean fluorescence intensity; MFI)", "setting": "[7]; [9]", "value": 253, "unit": "MFI"}, {"measurement": "CD40 (Mean fluorescence intensity; MFI)", "setting": "[7]; [12]", "value": "1,245 MFI"}, {"measurement": "IL-1β", "setting": "[8]; 10 μM", "value": 878.0075, "unit": "pg/mL"}, {"measurement": "IL-1β expression level relative to LPS + ATP alone", "setting": "[8]; 50 μM", "value": "about 85.8237%"}, {"measurement": "IL-1β", "setting": "[8]; 50 μM", "value": 799.4891, "unit": "pg/mL"}, {"measurement": "IL-1β expression level relative to LPS + ATP alone", "setting": "[8]; 100 μM", "value": "about 63.6037%"}, {"measurement": "IL-1β", "setting": "[8]; 100 μM", "value": 592.4987, "unit": "pg/mL"}]}]}
